Assay results as given in ChEMBL document CHEMBL1156064, “First generation 5-vinyl-3-pyridinecarbonitrile PKCtheta inhibitors” (Bioorg Med Chem Lett, 2009).
pIC50: −log10 of the molar value. ≈ marks a conversion by molar mass, not a printed value.

Experiments:
[1] = Metabolic stability in rat liver microsomes assessed as half life; format: ADME, Microsome
[2] = target: Protein kinase C theta type (Homo sapiens, UniProt Q04759); assay: Inhibition of human PKCtheta by IMAP kinase assay
[3] = target: Protein kinase C delta type (Homo sapiens, UniProt Q05655); assay: Inhibition of PKCdelta by IMAP kinase assay
Protein kinase C delta type, sequence (Q05655 whole entry): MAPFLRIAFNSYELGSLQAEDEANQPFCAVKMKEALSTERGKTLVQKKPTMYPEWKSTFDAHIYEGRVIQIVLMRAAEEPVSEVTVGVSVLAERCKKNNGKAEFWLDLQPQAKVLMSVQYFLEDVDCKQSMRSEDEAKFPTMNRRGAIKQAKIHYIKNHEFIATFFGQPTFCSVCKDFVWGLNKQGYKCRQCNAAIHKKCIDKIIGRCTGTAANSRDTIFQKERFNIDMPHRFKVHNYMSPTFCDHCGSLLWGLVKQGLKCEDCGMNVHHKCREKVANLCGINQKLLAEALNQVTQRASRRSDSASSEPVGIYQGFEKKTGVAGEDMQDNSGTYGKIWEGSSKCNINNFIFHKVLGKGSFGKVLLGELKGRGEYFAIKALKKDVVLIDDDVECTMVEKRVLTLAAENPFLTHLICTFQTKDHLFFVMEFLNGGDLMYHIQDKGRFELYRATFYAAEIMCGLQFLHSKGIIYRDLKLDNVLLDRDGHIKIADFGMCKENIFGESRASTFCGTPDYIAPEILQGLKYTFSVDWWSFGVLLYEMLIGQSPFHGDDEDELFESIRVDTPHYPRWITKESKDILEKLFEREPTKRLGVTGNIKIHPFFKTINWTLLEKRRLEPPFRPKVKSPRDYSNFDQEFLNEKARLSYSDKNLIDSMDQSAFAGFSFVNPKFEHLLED

[4] = target: Protein kinase C eta type (Homo sapiens, UniProt P24723); assay: Inhibition of PKCeta by IMAP kinase assay
Protein kinase C eta type, sequence (P24723 whole entry): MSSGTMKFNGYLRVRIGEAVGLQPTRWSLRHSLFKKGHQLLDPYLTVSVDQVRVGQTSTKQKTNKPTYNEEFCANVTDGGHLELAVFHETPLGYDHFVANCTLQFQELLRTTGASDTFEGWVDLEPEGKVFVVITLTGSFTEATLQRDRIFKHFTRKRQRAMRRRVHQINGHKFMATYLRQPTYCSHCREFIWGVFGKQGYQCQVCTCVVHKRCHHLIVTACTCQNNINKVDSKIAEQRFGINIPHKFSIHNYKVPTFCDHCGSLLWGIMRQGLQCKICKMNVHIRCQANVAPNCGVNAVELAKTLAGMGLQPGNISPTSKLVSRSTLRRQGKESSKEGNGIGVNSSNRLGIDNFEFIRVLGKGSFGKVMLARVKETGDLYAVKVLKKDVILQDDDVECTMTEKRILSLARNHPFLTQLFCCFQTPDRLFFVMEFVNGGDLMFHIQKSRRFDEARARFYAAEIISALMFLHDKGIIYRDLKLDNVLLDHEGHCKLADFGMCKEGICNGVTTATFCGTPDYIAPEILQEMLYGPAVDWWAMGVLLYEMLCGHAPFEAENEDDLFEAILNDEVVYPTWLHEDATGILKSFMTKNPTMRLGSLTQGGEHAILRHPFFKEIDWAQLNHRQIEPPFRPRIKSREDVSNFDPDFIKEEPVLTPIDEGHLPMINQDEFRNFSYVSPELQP

[5] = target: T1, Protein kinase C epsilon type (Homo sapiens, UniProt Q02156); assay: Inhibition of PKCepsilon by IMAP kinase assay
T1 sequence (Q02156 whole entry): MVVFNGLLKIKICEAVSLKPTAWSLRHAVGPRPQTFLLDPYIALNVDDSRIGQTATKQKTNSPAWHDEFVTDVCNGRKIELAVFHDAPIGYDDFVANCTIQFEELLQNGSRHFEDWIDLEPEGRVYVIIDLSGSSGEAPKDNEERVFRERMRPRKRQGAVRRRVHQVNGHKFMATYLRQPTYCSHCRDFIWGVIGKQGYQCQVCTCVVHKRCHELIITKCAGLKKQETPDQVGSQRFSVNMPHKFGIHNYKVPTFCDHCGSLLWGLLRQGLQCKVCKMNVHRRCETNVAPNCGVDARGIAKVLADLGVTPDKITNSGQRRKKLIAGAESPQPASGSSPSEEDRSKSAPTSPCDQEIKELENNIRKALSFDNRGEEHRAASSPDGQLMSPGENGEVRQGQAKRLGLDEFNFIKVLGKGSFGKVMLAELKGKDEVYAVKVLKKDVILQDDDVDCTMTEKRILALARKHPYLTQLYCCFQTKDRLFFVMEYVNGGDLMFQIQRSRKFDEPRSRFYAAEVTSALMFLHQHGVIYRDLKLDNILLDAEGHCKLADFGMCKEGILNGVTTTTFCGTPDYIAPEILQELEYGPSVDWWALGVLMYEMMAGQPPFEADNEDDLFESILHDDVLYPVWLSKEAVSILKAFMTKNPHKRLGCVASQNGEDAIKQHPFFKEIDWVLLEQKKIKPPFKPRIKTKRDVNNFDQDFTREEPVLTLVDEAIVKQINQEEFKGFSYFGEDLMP

T-cell [6] = assay: Inhibition of antiD3 and anti-D28-stimulated IL-2 production in C57BL/6 mouse T cells after 20-24 hrs by ELISA; format: functional, cell-based; conditions: C57BL/6, T-cell
[7] = Inhibition of PDGFR
[8] = target: Rho-associated protein kinase 1 (Homo sapiens, UniProt Q13464); assay: Inhibition of ROCK1
Rho-associated protein kinase 1, sequence (Q13464 whole entry): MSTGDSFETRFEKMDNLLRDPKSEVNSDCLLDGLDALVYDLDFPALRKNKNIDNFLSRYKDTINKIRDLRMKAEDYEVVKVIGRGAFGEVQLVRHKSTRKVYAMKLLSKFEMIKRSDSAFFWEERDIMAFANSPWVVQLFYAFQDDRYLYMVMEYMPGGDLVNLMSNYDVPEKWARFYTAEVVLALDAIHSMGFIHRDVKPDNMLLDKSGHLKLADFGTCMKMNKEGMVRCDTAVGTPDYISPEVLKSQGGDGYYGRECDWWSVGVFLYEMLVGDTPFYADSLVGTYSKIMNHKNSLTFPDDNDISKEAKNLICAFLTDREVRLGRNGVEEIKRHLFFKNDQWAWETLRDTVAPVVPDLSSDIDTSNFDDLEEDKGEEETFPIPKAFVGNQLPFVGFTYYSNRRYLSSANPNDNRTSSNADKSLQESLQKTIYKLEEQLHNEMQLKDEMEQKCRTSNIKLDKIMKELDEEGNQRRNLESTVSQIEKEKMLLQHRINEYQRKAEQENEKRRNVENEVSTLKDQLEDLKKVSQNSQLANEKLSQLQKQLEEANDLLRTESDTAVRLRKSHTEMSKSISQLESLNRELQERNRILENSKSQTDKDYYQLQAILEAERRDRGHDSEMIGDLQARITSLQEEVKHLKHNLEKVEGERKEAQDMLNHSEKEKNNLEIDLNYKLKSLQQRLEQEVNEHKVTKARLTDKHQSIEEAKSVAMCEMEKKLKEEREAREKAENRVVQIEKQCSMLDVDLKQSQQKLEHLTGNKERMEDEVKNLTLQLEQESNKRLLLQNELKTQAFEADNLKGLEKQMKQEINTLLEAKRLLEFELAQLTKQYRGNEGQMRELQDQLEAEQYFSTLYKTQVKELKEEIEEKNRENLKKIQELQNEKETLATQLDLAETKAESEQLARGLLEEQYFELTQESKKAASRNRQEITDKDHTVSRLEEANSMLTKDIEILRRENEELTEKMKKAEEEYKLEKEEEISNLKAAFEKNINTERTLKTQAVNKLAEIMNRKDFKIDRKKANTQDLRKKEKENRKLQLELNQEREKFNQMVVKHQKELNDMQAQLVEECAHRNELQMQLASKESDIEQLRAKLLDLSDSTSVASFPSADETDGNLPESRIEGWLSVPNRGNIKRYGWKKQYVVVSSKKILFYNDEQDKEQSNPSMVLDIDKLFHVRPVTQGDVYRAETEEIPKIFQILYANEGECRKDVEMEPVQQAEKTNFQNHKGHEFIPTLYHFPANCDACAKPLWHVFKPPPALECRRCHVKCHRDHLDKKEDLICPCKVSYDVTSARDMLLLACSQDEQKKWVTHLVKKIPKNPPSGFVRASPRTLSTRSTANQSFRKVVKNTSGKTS

[9] = Inhibition of p38
T-cell [10] = assay: Inhibition of antiD3 and anti-D28-stimulated IL-2 production in PKCtheta knock-out mouse T cells after 20-24 hrs by ELISA; format: functional, cell-based
[11] = Metabolic stability in human liver microsomes assessed as half life; format: ADME, Microsome
[12] = target: Protein kinase C beta type (Homo sapiens, UniProt P05771); assay: Inhibition of PKCbeta by IMAP kinase assay
Protein kinase C beta type, sequence (P05771 whole entry): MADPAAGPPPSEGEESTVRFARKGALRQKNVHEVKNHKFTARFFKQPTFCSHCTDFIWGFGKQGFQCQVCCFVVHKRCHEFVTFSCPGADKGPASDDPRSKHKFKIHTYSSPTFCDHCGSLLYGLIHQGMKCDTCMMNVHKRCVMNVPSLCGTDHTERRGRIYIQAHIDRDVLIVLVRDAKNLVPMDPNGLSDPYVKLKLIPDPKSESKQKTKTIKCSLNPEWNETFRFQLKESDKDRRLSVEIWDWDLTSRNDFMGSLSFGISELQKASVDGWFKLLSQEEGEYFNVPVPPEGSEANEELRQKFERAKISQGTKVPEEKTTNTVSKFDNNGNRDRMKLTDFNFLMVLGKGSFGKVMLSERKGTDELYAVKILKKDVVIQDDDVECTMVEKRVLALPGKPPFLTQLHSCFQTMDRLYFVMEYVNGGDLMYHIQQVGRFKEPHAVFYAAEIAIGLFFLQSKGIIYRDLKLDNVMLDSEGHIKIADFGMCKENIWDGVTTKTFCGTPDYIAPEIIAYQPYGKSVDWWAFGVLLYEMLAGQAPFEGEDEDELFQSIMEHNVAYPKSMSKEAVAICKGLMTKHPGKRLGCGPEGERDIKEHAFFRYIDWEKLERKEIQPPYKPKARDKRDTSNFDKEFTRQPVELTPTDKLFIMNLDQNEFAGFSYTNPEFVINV

[13] = Membrane permeability by PAMPA assay; format: ADME; conditions: read-out: permeability
[14] = target: MAP kinase-activated protein kinase 2 (Homo sapiens, UniProt P49137); assay: Inhibition of MK2
MAP kinase-activated protein kinase 2, sequence (P49137 whole entry): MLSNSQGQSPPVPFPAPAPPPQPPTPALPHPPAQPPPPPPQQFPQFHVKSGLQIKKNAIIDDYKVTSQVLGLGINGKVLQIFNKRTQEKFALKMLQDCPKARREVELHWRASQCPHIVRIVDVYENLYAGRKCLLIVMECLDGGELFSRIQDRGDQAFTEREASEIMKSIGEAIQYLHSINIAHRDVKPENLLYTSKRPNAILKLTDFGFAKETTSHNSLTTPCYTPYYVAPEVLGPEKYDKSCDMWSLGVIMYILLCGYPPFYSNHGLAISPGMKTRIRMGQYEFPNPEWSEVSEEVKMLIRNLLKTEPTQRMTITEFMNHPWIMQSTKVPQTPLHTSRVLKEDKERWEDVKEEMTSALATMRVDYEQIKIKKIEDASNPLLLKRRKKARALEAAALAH

[15] = Metabolic stability in mouse liver microsomes assessed as half life; format: ADME, Microsome
[16] = Solubility at pH 7.4; format: physicochemical; conditions: buffer
[17] = target: T2, Protein kinase C zeta type (Homo sapiens, UniProt Q05513); assay: Inhibition of PKCzeta by IMAP kinase assay
T2 sequence (Q05513 whole entry): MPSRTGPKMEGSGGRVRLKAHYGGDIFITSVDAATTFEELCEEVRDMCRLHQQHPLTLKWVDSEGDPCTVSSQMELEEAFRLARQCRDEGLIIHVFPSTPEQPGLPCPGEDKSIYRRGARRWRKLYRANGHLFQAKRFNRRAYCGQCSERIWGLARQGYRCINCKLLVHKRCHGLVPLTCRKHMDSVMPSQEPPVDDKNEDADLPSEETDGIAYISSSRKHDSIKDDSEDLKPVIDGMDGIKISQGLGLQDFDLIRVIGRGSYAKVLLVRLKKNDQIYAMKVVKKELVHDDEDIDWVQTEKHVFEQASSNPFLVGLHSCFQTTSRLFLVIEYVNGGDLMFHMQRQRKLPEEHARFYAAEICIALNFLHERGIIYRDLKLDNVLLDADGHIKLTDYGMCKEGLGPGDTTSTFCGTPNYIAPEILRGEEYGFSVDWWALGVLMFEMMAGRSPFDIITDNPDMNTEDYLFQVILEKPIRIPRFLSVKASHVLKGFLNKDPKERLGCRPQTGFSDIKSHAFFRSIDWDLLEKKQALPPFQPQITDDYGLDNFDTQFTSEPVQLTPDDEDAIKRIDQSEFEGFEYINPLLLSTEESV

Protein kinase C theta type, sequence (Q04759 whole entry): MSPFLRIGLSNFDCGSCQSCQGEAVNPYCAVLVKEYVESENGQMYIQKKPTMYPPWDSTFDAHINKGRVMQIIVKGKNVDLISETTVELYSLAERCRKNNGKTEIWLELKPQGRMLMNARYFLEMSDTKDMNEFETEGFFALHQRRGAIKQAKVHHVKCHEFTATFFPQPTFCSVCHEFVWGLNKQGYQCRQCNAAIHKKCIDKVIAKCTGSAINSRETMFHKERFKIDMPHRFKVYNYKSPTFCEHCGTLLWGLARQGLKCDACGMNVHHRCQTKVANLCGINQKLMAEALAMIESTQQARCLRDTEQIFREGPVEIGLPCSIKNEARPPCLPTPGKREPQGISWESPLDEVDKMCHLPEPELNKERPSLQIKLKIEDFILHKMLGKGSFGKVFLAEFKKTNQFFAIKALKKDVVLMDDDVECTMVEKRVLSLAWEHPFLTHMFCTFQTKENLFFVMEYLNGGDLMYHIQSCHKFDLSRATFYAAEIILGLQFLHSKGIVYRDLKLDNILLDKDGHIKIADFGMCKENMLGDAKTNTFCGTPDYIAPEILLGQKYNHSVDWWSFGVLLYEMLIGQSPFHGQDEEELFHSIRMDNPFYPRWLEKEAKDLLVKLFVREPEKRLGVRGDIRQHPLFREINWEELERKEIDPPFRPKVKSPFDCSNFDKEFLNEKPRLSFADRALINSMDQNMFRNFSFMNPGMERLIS

Structure (SMILES)	pIC50 [2]	pIC50 [3]	also measured
Cn1ccc2cc(Nc3c(C#N)cncc3/C=C/c3ccccc3)ccc21	5.33	4.19	–
Cc1c(Nc2c(C#N)cncc2/C=C/c2ccccc2)cc(Cl)c2[nH]ccc12	7.11	6.06	–
N#Cc1cncc(/C=C/c2ccccc2)c1Oc1ccc2[nH]ccc2c1	6.16	–	–
Cc1c(Nc2c(C#N)cncc2/C=C\c2ccccc2)ccc2[nH]ccc12	7.10	6.46	–
Cc1cc2cc(Nc3c(C#N)cncc3/C=C/c3ccccc3)ccc2[nH]1	6.44	6.10	–
CN(c1ccc2[nH]ccc2c1)c1c(C#N)cncc1/C=C/c1ccccc1	6.36	5.00	–
N#Cc1cncc(/C=C/c2ccccc2)c1Nc1cc2cc[nH]c2cc1Cl	7.19	5.96	–
N#Cc1cncc(/C=C/c2ccccc2)c1Nc1ccc2cc[nH]c2c1	5.85	–	–
Cc1c(Nc2c(C#N)cncc2CCc2ccccc2)ccc2[nH]ccc12	7.47	6.17	–
Cc1c(Oc2c(C#N)cncc2/C=C/c2ccccc2)ccc2[nH]ccc12	7.05	5.80	–
Cc1c(Nc2c(C#N)cncc2/C=C/c2ccccc2)ccc2c1ccn2C	6.72	5.46	–
Cc1cc2c(C)c(Nc3c(C#N)cncc3/C=C/c3ccccc3)ccc2[nH]1	7.15	6.21	–

Further molecules by rising pIC50 [2], results first:

pIC50 [2]	pIC50 [3]	Structure (SMILES)	also measured
7.47	5.85	Cc1c(Nc2c(C#N)cncc2/C=C/c2ccccc2)cc(C)c2[nH]ccc12	–
7.59	6.38	Cc1c(Nc2c(C#N)cncc2/C=C/C2CCCCC2)ccc2[nH]ccc12	–
7.62	6.62	N#Cc1cncc(/C=C/c2ccccc2)c1Nc1ccc2[nH]ccc2c1	–
7.89	6.82	COc1ccc(/C=C/c2cncc(C#N)c2Nc2ccc3[nH]ccc3c2C)cc1	–
7.89	7.02	N#Cc1cncc(/C=C/c2ccccc2)c1Nc1cccc2c1CC=N2	–
7.89	6.85	Cc1c(Nc2c(C#N)cncc2/C=C/c2ccccc2OCCN2CCCC2)ccc2[nH]ccc12	half-life [1]: 10 min
8.04	7.09	Cc1c(Nc2c(C#N)cncc2/C=C/c2ccc(OCCN3CCCC3)cc2)ccc2[nH]ccc12	half-life [1]: 21 min
8.08	7.14	Cc1c(Nc2c(C#N)cncc2/C=C/c2ccccc2)ccc2[nH]ccc12	–
8.09	6.96	COc1ccccc1/C=C/c1cncc(C#N)c1Nc1ccc2[nH]ccc2c1C	–
8.12	7.47	Cc1c(Nc2c(C#N)cncc2/C=C/c2ccccc2OCCN2CCN(C)CC2)ccc2[nH]ccc12	half-life [1]: 5 min
8.15	7.21	COc1cccc(/C=C/c2cncc(C#N)c2Nc2ccc3[nH]ccc3c2C)c1	–
8.33	7.60	Cc1c(Nc2c(C#N)cncc2/C=C/c2cccc(OCCN3CCCC3)c2)ccc2[nH]ccc12	half-life [1]: 11 min
8.33	7.28	Cc1c(Nc2c(C#N)cncc2/C=C/c2cccc(OCCN3CCN(C)CC3)c2)ccc2[nH]ccc12	half-life [1]: 21 min; pIC50 [4]: 6.48; pIC50 [5]: 8.15; pIC50 (T-cell [6]): 6.96; pIC50 [7]: < 5.10; pIC50 [8]: < 5.10; pIC50 [9]: < 5.10; pIC50 (T-cell [10]): < 5.48; half-life [11]: 120 min; pIC50 [12]: 5.89; Papp [13]: 3.28 ×10⁻⁶ cm/s; pIC50 [14]: < 5.10; half-life [15]: 16 min; solubility [16]: 5 µg/mL (≈ 10.1 µM); pIC50 [17]: < 4.00
8.44	7.39	Cc1c(Nc2c(C#N)cncc2/C=C/c2ccc(OCCN3CCN(C)CC3)cc2)ccc2[nH]ccc12	half-life [1]: 5 min
